In PubChem BioAssay AID330 (DTP/NCI, 2004) one finds T/C data, which are given here for 27 compounds.

Where “and” joins values, the source holds several entries; their conditions need not be identical. Identical values can stand only once. Inconclusive results and toxic doses are left out. Square brackets hold non-standard residues; d marks the D form. Peptide text beside a SMILES is read from it. * marks the point of attachment. Cbz = O=C(OCc1ccccc1)*; Nva = CCC[CH](N)C(=O)O

The subject of the assay is P388 leukemia ip, CD2F1 mice, survival T/C. Briefly: NCI In Vivo Anticancer Drug Screen. Data for tumor model P388 Leukemia (intraperitoneal) in CD2F1 (CDF1) mice. The following applies: endpoint: median survival time, higher = longer survival. Put shortly: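 Mice carrying the transplanted tumor received test compound or vehicle. Survival was recorded in each group, and the value is the treated-group measurement divided by that of the vehicle-treated control group.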

The mark [1] stands for this setting: dose: 50.0 mg/kg/injection, schedule: Q01DX005 (ip), vehicle: Klucel (hydroxypropylcellulose) (HPC).
Where [2] appears, read: dose: 100.0 mg/kg/injection, schedule: Q01DX005 (ip), vehicle: Klucel (hydroxypropylcellulose) (HPC).
Setting [3] is: dose: 200.0 mg/kg/injection, schedule: Q01DX005 (ip), vehicle: Klucel (hydroxypropylcellulose) (HPC).
[4] abbreviates: dose: 50.0 mg/kg/injection, schedule: Q01DX009 (ip), vehicle: saline.
Where [5] appears, read: dose: 100.0 mg/kg/injection, schedule: Q01DX009 (ip), vehicle: saline.
The mark [6] stands for this setting: dose: 25.0 mg/kg/injection, schedule: Q01DX009 (ip), vehicle: Klucel (hydroxypropylcellulose) (HPC).
The mark [7] stands for this setting: dose: 50.0 mg/kg/injection, schedule: Q01DX009 (ip), vehicle: Klucel (hydroxypropylcellulose) (HPC).
The mark [8] stands for this setting: dose: 60.0 mg/kg/injection, schedule: Q01DX005 (ip), vehicle: saline with Tween-80.
Where [9] appears, read: dose: 120.0 mg/kg/injection, schedule: Q01DX005 (ip), vehicle: saline with Tween-80.
The mark [10] stands for this setting: dose: 240.0 mg/kg/injection, schedule: Q01DX005 (ip), vehicle: saline with Tween-80.
Setting [11] is: dose: 12.5 mg/kg/injection, schedule: Q01DX009 (ip), vehicle: saline.
[12] abbreviates: dose: 6.25 mg/kg/injection, schedule: Q01DX005 (ip), vehicle: Klucel (hydroxypropylcellulose) (HPC).
Setting [13] is: dose: 12.5 mg/kg/injection, schedule: Q01DX005 (ip), vehicle: Klucel (hydroxypropylcellulose) (HPC).

For the compound `CCCC(NC(=O)OCc1ccccc1)C(=O)NC(Cc1ccc(O)cc1)C(=O)O` (configuration not stated) (Cbz-[Nva]-Tyr-OH; configuration not given here), the T/C is, setting by setting: under setting [1], 102 % of control; under setting [2], 105 % of control; under setting [3], 94 % of control.

As for `[Cl][Pt][Cl].[NH-]CCC[N-]CCCC[N-]CCC[NH-]`, the T/C by setting is: (dose: 1.56 mg/kg/injection, schedule: Q04DX003 (ip), vehicle: saline) 88 % of control; (dose: 3.13 mg/kg/injection, schedule: Q04DX003 (ip), vehicle: saline) 98 % of control and 94 % of control; (dose: 6.25 mg/kg/injection, schedule: Q04DX003 (ip), vehicle: saline) 107 % of control; (dose: 12.5 mg/kg/injection, schedule: Q04DX003 (ip), vehicle: saline) 99 % of control and 119 % of control and 123 % of control; (dose: 25.0 mg/kg/injection, schedule: Q04DX003 (ip), vehicle: saline) 102 % of control and 122 % of control.

Consider `COC(=O)Nc1nc2ccc(C(=O)OC)cc2[nH]1`, for which the T/C (dose: 100.0 mg/kg/injection, schedule: Q04DX003 (ip), vehicle: saline) was 102 % of control; the T/C (dose: 200.0 mg/kg/injection, schedule: Q04DX003 (ip), vehicle: saline) was 103 % of control; the T/C (dose: 400.0 mg/kg/injection, schedule: Q04DX003 (ip), vehicle: saline) is 103 % of control.

With `CN1CCN(c2ccncc2S(=O)(=O)N2CCOCC2)CC1`, the T/C runs as follows: under setting [4], 97 % of control; under setting [5], 95 % of control.

As to `FC(F)(F)c1ccc(Cl)c(NC(=S)SC2CCCCC2)c1`, the T/C by setting is: under setting [4], 100 % of control; under setting [5], 100 % of control; (dose: 200.0 mg/kg/injection, schedule: Q01DX009 (ip), vehicle: saline) 97 % of control.

Consider `CN1CCN(C(=O)/C=C/C(=O)c2ccccc2)CC1`, for which the T/C is, setting by setting: (dose: 30.0 mg/kg/injection, schedule: Q01DX005 (ip), vehicle: Klucel (hydroxypropylcellulose) (HPC)) 121 % of control; (dose: 30.0 mg/kg/injection, schedule: Q01DX005 (ip), vehicle: saline) 108 % of control; (dose: 60.0 mg/kg/injection, schedule: Q01DX005 (ip), vehicle: saline) 106 % of control and 109 % of control.

Regarding `NP1(N)=NP(N)(N)=NP(N)(N)=NP(N)(N)=N1`, the T/C is, setting by setting: under setting [1], 96 % of control; under setting [2], 96 % of control; under setting [3], 99 % of control.

For the compound `CC(NC(=O)OCc1ccccc1)C(=O)NC(CO)C(N)=O` (stereo not drawn) (Cbz-Ala-Ser-NH2; configuration not given here), the T/C runs as follows: under setting [1], 97 % of control; under setting [2], 98 % of control; under setting [3], 102 % of control.

On to `COC(=O)C(CCC(=O)CCl)N1C(=O)c2ccccc2C1=O` (configuration not stated), for which the T/C is, setting by setting: under setting [6], 108 % of control; under setting [7], 106 % of control.

For `CCCCCCCCCCCCCCCCOCC(COP(=O)([O-])OCC[N+](C)(C)C)OCCCCCCCCCCCCCCCC` (configuration not stated), the T/C runs as follows: under setting [8], 97 % of control; under setting [9], 100 % of control; under setting [10], 104 % of control.

Regarding `O=S1(=O)CC(Sc2ccccc2)C1`, the T/C by setting is: (dose: 100.0 mg/kg/injection, schedule: Q01DX001 (ip), vehicle: saline with Tween-80) 102 % of control; (dose: 200.0 mg/kg/injection, schedule: Q01DX001 (ip), vehicle: saline with Tween-80) 96 % of control; (dose: 400.0 mg/kg/injection, schedule: Q01DX001 (ip), vehicle: saline with Tween-80) 109 % of control.

As to `C[NH-].C[NH-].[Cl][Pt+2][Cl]`, the T/C under setting [11] is 113 % of control.

Turning to `CC(C)(C)NCC(CN1CCOCC1)C(=O)c1ccccc1` (configuration not stated), the T/C is, setting by setting: under setting [12], 99 % of control; under setting [13], 96 % of control.

Regarding `O=c1[nH]c2cc([N+](=O)[O-])ccc2nc1/C=C(\O)c1ccc([N+](=O)[O-])cc1`, the T/C (dose: 60.0 mg/kg/injection, schedule: Q01DX005 (ip), vehicle: Klucel + Tween-80) is 87 % of control; the T/C (dose: 120.0 mg/kg/injection, schedule: Q01DX005 (ip), vehicle: Klucel + Tween-80) is 86 % of control; the T/C (dose: 240.0 mg/kg/injection, schedule: Q01DX005 (ip), vehicle: Klucel + Tween-80) is 90 % of control.

As to `CCCCCCCCCCCC[N+]1(CC)CCCC1`, the T/C is, setting by setting: (dose: 1.56 mg/kg/injection, schedule: Q01DX009 (ip), vehicle: saline) 100 % of control; (dose: 3.12 mg/kg/injection, schedule: Q01DX009 (ip), vehicle: saline) 98 % of control and 92 % of control; (dose: 6.25 mg/kg/injection, schedule: Q01DX009 (ip), vehicle: saline) 86 % of control.

`N[C@@H](Cc1ccccc1)C(=O)NCCNC(=O)[C@@H](N)Cc1ccccc1`: the T/C by setting is: under setting [8], 103 % of control; under setting [9], 100 % of control; under setting [10], 104 % of control.

As to `COC(=O)CCC1=CC(=O)C(OC)=CC1=O`, the T/C was 110 % of control (dose: 6.25 mg/kg/injection, schedule: Q01DX009 (ip), vehicle: saline with Tween-80); 97 % of control (dose: 12.5 mg/kg/injection, schedule: Q01DX009 (ip), vehicle: saline with Tween-80); 99 % of control (dose: 25.0 mg/kg/injection, schedule: Q01DX009 (ip), vehicle: saline with Tween-80).

On to `COc1ccc(C(CC(=O)c2ccccc2)[Se]c2ccccc2)cc1` (configuration not stated), for which the T/C under setting [6] is 105 % of control; the T/C under setting [7] is 106 % of control; the T/C (dose: 100.0 mg/kg/injection, schedule: Q01DX009 (ip), vehicle: Klucel (hydroxypropylcellulose) (HPC)) is 105 % of control.

As for `CCN(CC)CC(C)(C)C(=O)/C=C/c1ccc(/C=C/C(=O)C(C)(C)CN(CC)CC)cc1`, the T/C (dose: 7.5 mg/kg/injection, schedule: Q01DX005 (ip), vehicle: saline) is 115 % of control and 124 % of control.

In the case of `CC(C)(C)N=C(Cc1ccccc1)N1CCOCC1`, the T/C runs as follows: (dose: 50.0 mg/kg/injection, schedule: Q01DX009 (ip), vehicle: saline with Tween-80) 119 % of control; (dose: 100.0 mg/kg/injection, schedule: Q01DX009 (ip), vehicle: saline with Tween-80) 96 % of control; (dose: 200.0 mg/kg/injection, schedule: Q01DX009 (ip), vehicle: saline with Tween-80) 90 % of control.

As to `COc1cc(C2C(C)=C(C)Oc3cc4c(cc32)OCO4)cc(OC)c1OC` (configuration not stated), the T/C reads like this: under setting [8], 97 % of control; under setting [9], 91 % of control; under setting [10], 88 % of control.

For the compound `CCN(CC)CCNC(=O)c1cc(Cl)c(C(=O)NO)cc1OC`, the T/C is, setting by setting: under setting [12], 87 % of control; under setting [13], 95 % of control; (dose: 25.0 mg/kg/injection, schedule: Q01DX005 (ip), vehicle: Klucel (hydroxypropylcellulose) (HPC)) 104 % of control.

As to `COc1ccc(/C(C#N)=C/c2ccncc2)cc1OC`, the T/C reads like this: under setting [11], 102 % of control; (dose: 25.0 mg/kg/injection, schedule: Q01DX009 (ip), vehicle: saline) 97 % of control; under setting [4], 101 % of control; under setting [5], 101 % of control.

Consider `CN1CCCOC(c2ccccc2)c2ccsc2CC1` (configuration not stated), for which the T/C is, setting by setting: (dose: 7.5 mg/kg/injection, schedule: Q01DX005 (ip), vehicle: saline with Tween-80) 101 % of control; (dose: 15.0 mg/kg/injection, schedule: Q01DX005 (ip), vehicle: saline with Tween-80) 102 % of control; (dose: 30.0 mg/kg/injection, schedule: Q01DX005 (ip), vehicle: saline with Tween-80) 102 % of control; under setting [8], 101 % of control and 93 % of control.

For `C=Cc1ccccc1` (tested in a mixture with another compound), the T/C (dose: 12.5 mg/kg/injection, schedule: Q01DX005 (ip), vehicle: saline) was 98 % of control and the T/C (dose: 25.0 mg/kg/injection, schedule: Q01DX005 (ip), vehicle: saline) was 99 % of control.

For the compound `CCOC(=O)c1cnc(NCCCCNc2ncc(C(=O)OCC)c(=O)[nH]2)[nH]c1=O`, the T/C was 98 % of control under setting [1], 90 % of control under setting [2] and 90 % of control under setting [3].

On to `c1cc2c3c(c1)nc(CCc1nc4cccc5c4n1CCC5)n3CCC2`, for which the T/C is, setting by setting: (dose: 25.0 mg/kg/injection, schedule: Q04DX003 (ip), vehicle: saline with Tween-80) 109 % of control; (dose: 50.0 mg/kg/injection, schedule: Q04DX003 (ip), vehicle: saline with Tween-80) 86 % of control; (dose: 100.0 mg/kg/injection, schedule: Q04DX003 (ip), vehicle: saline with Tween-80) 86 % of control.
